Experimental data: US20240368151A1, “NOVEL ERGOLINES AND METHODS OF TREATING MOOD DISORDERS” (priority 2021, published 2024)

Legend:
[1] = Metabolic stability in human liver microsomes (HLM); type: in vitro ADME; conditions: both sexes, human, pooled human liver microsomes, pH 7.4, NADPH
Description: HLM Stability. Pooled HLM from adult male and female donors (Corning 452117) were used.

human 5-HT2C receptor = human 5-HT2C receptor (Homo sapiens (Human), UniProt P28335); type: cell-based; conditions: Ca^2+ flux
5-HT2A receptor [2] = target: T1, 5-HT2A receptor (Homo sapiens (Human), UniProt P28223); type: cell-based; conditions: beta-arrestin recruitment
Description: The degree of arrestin bias varied substantially across the other compounds tested as well.
Arrestin Functional Assay at 5-HT2A. Recruitment of beta-arrestin was determined using a PathHunter assay at Eurofins DiscoverX (Fremont, CA) according to their standard protocols. PathHunter GPCR beta-arrestin assays take advantage of DiscoverX's proprietary Enzyme Fragment Complementation technology. The GPCR is fused in frame with a small enzyme donor fragment ProLink™ (PK) and co-expressed in cells stably expressing a fusion protein of beta-arrestin and the larger, N-terminal deletion mutant of beta-galactosidase. Activation of the GPCR (5-HT2A receptor in this case) stimulates binding of beta-arrestin to the PK-tagged GPCR and forces complementation of the two enzyme fragments, resulting in the formation of an active beta-galactosidase enzyme. This interaction leads to an increase in enzyme activity that can be measured using chemiluminescent PathHunter Detection Reagents. Briefly, PathHunter cells expressing 5-HT2A receptors were seeded in a volume of 20 μL into 384-well plates and incubated at 37° C. for the appropriate time prior to testing. […] Plates were then imaged on a microplate reader and the agonist activity was calculated using the following formula: % Activity=100%×(mean RLU of test sample−mean RLU of vehicle control)/(mean MAX control ligand−mean RLU of vehicle control), where RLU=relative light units.

C57BL/6 mice = test: Mouse head twitch response (HTR) assay; type: in vivo; conditions: mouse HTR, SC; for Emax (95% CI) / # HTR at Most Efficacious Dose: 20 min observation; for Emax (95% CI): curve fit
Description: Agonists of the 5-HT2A receptor are well known to induce this effect in rodents and the potency of this HTR is correlated with hallucinogenic potency in humans.
Animals. Adult male C57BL/6 mice, aged 6-8 weeks (body weight 20-25 g) were used in this experiment. Animals were housed under controlled temperatures and 12-hour light/dark cycles (lights on between 07:00-19:00 h), with ad libitum food and water. This study was carried out in strict accordance with the requirements of the Committee for the Purpose of Control and Supervision of Experiments on Animals (CPCSEA), India. All efforts were made to minimize suffering.
Drugs and Drug Administration. Compound 1 was synthesized as described above. It was administered subcutaneously (SC) dissolved in saline vehicle at a volume of 10 mL/kg. Five doses were tested, with n=6 animals/group. Doses were calculated on the basis of the freebase.
Procedure. Mice were administered one dose of the drug and immediately placed into a small open field for behavioral observation. Animals were observed continuously for 20 mins and the number of head twitches (HTs) were counted by an observer blind to the treatment condition.
Statistical Analysis. The data points shown are the mean±standard error of the mean (SEM). Analysis was performed using GraphPad Prism 6. Curves were fit using a non-linear gaussian distribution to calculate ED50 and Emax values.
Additional disclosed compounds were tested in the mouse head twitch response (HTR) assay according to the procedure described in Example 34. […] Lastly, compounds with much larger benzyl and phenethyl substituents on the amine nitrogen (e.g., 10 and 11) were low efficacy in this assay, consistent with their lower maximal efficacy in the arrestin functional assay (see Example 32).

5-HT2A receptor [3] = target: T1, 5-HT2A receptor; type: cell-based; conditions: Ca^2+ flux, HEK293
Description: (§1) Functional Assays at 5-HT2A, 5-HT2B, and 5-HT1A. Agonist activity at 5-HT2A, 5-HT2B, and 5-HT1A receptors was determined using a FLIPR Ca^2+ flux assay at WuXi AppTec (Hong Kong) Limited according to their standard protocols. Briefly, stably transfected cells expressing the receptor of interest (HEK293 for 5-HT2A and 5-HT2B; CHO cells for 5-HT1A) were grown and plated in a 384 well plate and incubated at 37° C. and 5% CO2 overnight. A solution of 250 mM probenecid in 1 mL FLIPR assay buffer was prepared fresh. This was combined with a fluorescent dye (Fluo-4 Direct™) to make a final assay concentration of 2.5 mM. […] The fluorescent dye was then added to the assay plate along with assay buffer to a final volume of 40 μL. The cell plate was incubated for 50 min at 37° C. and 5% CO2 and placed into the FLIPR Tetra along with the compound plate. 10p L of references and compounds were then transferred from the compound plate into the cell plate and the fluorescent signal was read.

5-HT2B receptor = 5-HT2B receptor (Homo sapiens (Human), UniProt P41595); test: FLIPR Ca^2+ flux agonist assay at 5-HT2B; type: cell-based; conditions: HEK293
Description: as §1

5-HT1A receptor = 5-HT1A receptor (Homo sapiens (Human), UniProt P08908); test: FLIPR Ca^2+ flux agonist assay at 5-HT1A; type: cell-based; conditions: CHO cells
Description: as §1

[4] = Metabolic stability in rat liver microsomes (RLM); type: in vitro ADME; conditions: both sexes, rat, pooled rat liver microsomes, pH 7.4, NADPH
[5] = Metabolic stability in mouse liver microsomes (MLM); type: in vitro ADME; conditions: mouse, pooled mouse liver microsomes, pH 7.4, MLM (CD-1), NADPH
Description: MLM Stability Pooled MLM from CD-1 mice (BIOIVT M00501) were used.

5-HT2B receptor, sequence (P41595 whole entry, looked up): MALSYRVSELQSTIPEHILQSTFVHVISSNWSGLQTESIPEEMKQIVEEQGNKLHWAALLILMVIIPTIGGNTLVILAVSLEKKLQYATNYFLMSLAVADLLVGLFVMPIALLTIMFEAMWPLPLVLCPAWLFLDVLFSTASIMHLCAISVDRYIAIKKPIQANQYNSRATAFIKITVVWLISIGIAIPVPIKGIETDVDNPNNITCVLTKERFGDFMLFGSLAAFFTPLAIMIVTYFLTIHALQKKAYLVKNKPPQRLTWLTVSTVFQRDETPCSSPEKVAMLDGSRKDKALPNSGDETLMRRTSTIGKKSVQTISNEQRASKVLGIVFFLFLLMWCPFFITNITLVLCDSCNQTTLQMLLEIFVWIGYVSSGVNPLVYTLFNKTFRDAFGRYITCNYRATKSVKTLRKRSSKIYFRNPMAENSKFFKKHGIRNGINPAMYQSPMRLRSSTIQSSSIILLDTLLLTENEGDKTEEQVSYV
human 5-HT2C receptor, sequence (P28335 33-458 limits assumed): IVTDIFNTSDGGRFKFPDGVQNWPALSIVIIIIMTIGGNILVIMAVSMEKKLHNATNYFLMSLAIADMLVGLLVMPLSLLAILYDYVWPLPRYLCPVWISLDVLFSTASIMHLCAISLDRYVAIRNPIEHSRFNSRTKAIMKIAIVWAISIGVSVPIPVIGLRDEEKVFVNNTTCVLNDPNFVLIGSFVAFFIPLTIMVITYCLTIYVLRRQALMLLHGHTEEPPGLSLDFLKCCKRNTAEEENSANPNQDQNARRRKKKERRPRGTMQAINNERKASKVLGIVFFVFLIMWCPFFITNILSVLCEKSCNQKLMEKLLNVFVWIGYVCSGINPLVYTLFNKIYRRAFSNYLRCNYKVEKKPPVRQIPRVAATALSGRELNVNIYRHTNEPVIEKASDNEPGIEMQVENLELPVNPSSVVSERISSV

Compound | half-life at 1 μM [1] | 5-HT2C % Act @ Max Dose (human 5-HT2C receptor) | 5-HT2A Arrestin % Act @ Max Dose (5-HT2A receptor [2]) | agonist type in the 5-HT2A arrestin recruitment assay, in words (5-HT2A receptor [2]) | Most Efficacious Dose (C57BL/6 mice) | Emax (95% CI) (C57BL/6 mice) | 5-HT2A % Act @ Max Dose (5-HT2A receptor [3]) | 5-HT2B % Act @ Max Dose (5-HT2B receptor) | 5-HT1A % Act @ Max Dose (5-HT1A receptor) | half-life at 1 μM [4] | half-life at 1 μM [5] | # HTR at Most Efficacious Dose (C57BL/6 mice)
CCC[C@@H](C)NC(=O)[C@@H]1C=C2c3cccc4[nH]cc(c34)C[C@H]2N(C)C1 [Int17, (6aR,9R)-7-methyl-N-((R)-pentan-2-yl)-4,6,6a,7,8,9-hexahydroindolo[4,3-fg]quinoline-9-carboxamide] | 15.9 min | 102.19% | 38.809% | partial agonists | (0.32 mg/kg) | 4.96 | 91.47% | 25.49% | 113.04% | 27.9 min | 8.25 min | 
CCN(CC)C(=O)[C@H]1C=C2c3cccc4[nH]cc(c34)C[C@H]2N(CCCF)C1 [Compound 2a, (6aR,9S)-N,N-diethyl-7-(3-fluoropropyl)-4,6,6a,7,8,9-hexahydroindolo[4,3-fg]quinoline-9-carboxamide] | 17 min | 118.85% | 83.328% |  |  |  | 90.29% | 40.13% | 96.77% | 9.67 min | 1.78 min | 
CCC(CC)NC(=O)[C@@H]1C=C2c3cccc4[nH]cc(c34)C[C@H]2N(C)C1 [Int14, (6aR,9R)-7-methyl-N-(pentan-3-yl)-4,6,6a,7,8,9-hexahydroindolo[4,3-fg]quinoline-9-carboxamide] | 17.6 min | 99.149% | 44.377% | partial agonists | (1 mg/kg) | 21.63 | 93.33% | 9.84% | 102.46% | 38 min | 6.07 min | 10.5
CC[C@@H](C)NC(=O)[C@H]1C=C2c3cccc4[nH]cc(c34)C[C@H]2N(C)C1 [Int8a, (6aR,9S)-N-((R)-sec-butyl)-7-methyl-4,6,6a,7,8,9-hexahydroindolo[4,3-fg]quinoline-9-carboxamide] | 11.1 min | 93.73% | 35.52% |  |  |  | 72.6% | 6.87% | 103.65% | 3.5 min | 1.6 min | 
C[C@H]1C[C@H](C)N1C(=O)[C@@H]1C=C2c3cccc4[nH]cc(c34)C[C@H]2N(C)C1 [Int11, ((2S,4S)-2,4-dimethylazetidin-1-yl)((6aR, 9R)-7-methyl-4,6,6a,7,8,9-hexahydroindolo[4,3-fg]quinolin-9-yl)methanone] | 25.7 min |  | 49.269% | partial agonists | (0.1 mg/kg) | 10.93 | 110.03% | 38.15% | 89.9% | 54.9 min | 13.9 min | 10.667
CCC[C@@H](C)NC(=O)[C@@H]1C=C2c3cccc4[nH]cc(c34)C[C@H]2N(CCC)C1 [Compound 7, (6aR,9R)-N-((R)-pentan-2-yl)-7-propyl-4,6,6a,7,8,9-hexahydroindolo[4,3-fg]quinoline-9-carboxamide] | 1.65 min | 114.78% | 110.2% | full agonists | (1 mg/kg) | 720.4 | 94.52% | 94.75% | 107.16% | 1.61 min | 0.541 min | 16.667
CCCN1C[C@@H](C(=O)N[C@H](C)CC)C=C2c3cccc4[nH]cc(c34)C[C@H]21 [Compound 3a, (6aR,9S)-N-((R)-sec-butyl)-7-propyl-4,6,6a,7,8,9-hexahydroindolo[4,3-fg]quinoline-9-carboxamide] | 2.2 min | 108.705% | 112.91% |  |  |  | 92.04% | 52.81% | 108.14% | 1.4 min | 0.6 min | 
C=CCN1C[C@@H](C(=O)N[C@H](C)CC)C=C2c3cccc4[nH]cc(c34)C[C@H]21 [Compound 8a, (6aR,9S)-7-allyl-N-((R)-sec-butyl)-4,6,6a,7,8,9-hexahydroindolo[4,3-fg]quinoline-9-carboxamide] | 3.4 min | 13.314% | 81.117% |  |  |  | 87.45% | 35.71% | 90.34% | 1.7 min | 0.8 min | 
CC[C@@H](C)NC(=O)[C@H]1C=C2c3cccc4[nH]cc(c34)C[C@H]2N(CC)C1 [Compound 5a, (6aR,9S)-N-((R)-sec-butyl)-7-ethyl-4,6,6a,7,8,9-hexahydroindolo[4,3-fg]quinoline-9-carboxamide] | 5.5 min | 99.4405% | 62.444% |  |  |  | 89.59% | 43.7% | 111.65% | 3.1 min | 1.7 min | 
CCC(CC)NC(=O)[C@H]1C=C2c3cccc4[nH]cc(c34)C[C@H]2N(C)C1 [Int14a, (6aR,9S)-7-methyl-N-(pentan-3-yl)-4,6,6a,7,8,9-hexahydroindolo[4,3-fg]quinoline-9-carboxamide] | 3.35 min | 119.28% | 44.321% |  |  |  | 32.98% | 1.86% | 70.27% | 1.8 min | 1.7 min | 
CCC[C@@H](C)NC(=O)[C@H]1C=C2c3cccc4[nH]cc(c34)C[C@H]2N(C)C1 [Int17a, (6aR,9S)-7-methyl-N-((R)-pentan-2-yl)-4,6,6a,7,8,9-hexahydroindolo[4,3-fg]quinoline-9-carboxamide] | 4.58 min | 112.06% | 43.729% |  |  |  | 63.31% | 5.63% | 88.52% | 1.96 min | 1.58 min | 
